The record followed here is patent US20060257543A1, “Molecules comprising linked organic moieties as flavor modifiers for comestible compositions” (priority 2005, published 2006).

Read-outs that look alike come from different tables or passages of the source.

Experiment [1] deals with T1, hT1R1/hT1R3 umami receptor expressed in an HEK293 cell line (Homo sapiens, UniProt Q7RTX0+Q7RTX1).
T1 construct: expressed in transfected cells; host or cells: HEK293 derivative, clone I-17, expression induced with mifepristone
T1 sequence (Q7RTX1 21-841): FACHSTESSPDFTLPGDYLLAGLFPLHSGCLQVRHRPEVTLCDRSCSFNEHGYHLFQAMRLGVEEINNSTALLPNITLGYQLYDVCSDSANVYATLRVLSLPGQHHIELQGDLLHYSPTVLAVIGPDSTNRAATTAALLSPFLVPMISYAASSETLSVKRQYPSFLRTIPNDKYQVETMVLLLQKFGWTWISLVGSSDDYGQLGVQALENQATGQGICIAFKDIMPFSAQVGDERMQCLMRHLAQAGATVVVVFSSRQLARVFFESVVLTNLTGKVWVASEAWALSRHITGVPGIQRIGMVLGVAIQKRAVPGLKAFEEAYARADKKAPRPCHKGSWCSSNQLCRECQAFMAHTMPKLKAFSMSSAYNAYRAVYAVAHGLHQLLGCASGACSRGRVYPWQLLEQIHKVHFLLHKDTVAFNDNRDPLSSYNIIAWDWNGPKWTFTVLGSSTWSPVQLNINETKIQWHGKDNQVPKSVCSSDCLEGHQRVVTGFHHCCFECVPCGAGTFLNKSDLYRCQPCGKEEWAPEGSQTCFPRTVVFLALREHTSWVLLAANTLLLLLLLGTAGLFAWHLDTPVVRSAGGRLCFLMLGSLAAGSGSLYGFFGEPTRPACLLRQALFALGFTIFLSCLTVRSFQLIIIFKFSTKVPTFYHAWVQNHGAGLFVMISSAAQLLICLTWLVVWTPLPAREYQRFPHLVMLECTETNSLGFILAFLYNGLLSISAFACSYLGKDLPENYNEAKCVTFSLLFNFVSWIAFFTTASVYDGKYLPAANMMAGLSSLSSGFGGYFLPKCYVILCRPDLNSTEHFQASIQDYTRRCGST
T1 sequence (Q7RTX0 21-852): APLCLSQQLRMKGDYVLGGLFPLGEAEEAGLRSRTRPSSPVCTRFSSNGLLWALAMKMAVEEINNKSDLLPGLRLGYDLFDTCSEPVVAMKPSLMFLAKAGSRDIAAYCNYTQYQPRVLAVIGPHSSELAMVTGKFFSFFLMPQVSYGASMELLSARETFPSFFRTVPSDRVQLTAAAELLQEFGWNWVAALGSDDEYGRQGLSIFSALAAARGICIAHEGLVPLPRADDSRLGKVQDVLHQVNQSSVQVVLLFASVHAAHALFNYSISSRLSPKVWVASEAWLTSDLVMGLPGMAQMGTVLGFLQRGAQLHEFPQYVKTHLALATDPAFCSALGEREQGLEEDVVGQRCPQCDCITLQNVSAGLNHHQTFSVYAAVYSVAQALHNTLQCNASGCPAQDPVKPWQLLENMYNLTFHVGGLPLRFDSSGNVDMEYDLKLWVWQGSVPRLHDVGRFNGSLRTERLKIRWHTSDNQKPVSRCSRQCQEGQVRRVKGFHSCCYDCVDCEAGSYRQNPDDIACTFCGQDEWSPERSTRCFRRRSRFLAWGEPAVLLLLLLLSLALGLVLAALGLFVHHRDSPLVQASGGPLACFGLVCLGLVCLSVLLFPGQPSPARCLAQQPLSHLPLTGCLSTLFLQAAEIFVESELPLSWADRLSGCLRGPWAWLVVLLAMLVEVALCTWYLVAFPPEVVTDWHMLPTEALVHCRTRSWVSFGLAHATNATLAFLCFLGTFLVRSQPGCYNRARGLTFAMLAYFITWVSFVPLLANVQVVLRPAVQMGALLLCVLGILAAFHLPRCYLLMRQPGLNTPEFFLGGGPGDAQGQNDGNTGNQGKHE
The experiment in a line: In vitro hT1R1/hT1R3 umami taste receptor activation assay (FLIPR, dose response). It is filed as cell-based. An excerpt: In order to identify new savory flavoring agents and enhancers, including compounds with savory agonist and enhancer activities (dual activity), the tastant compounds of Formula (I) were screened in primary assays and secondary assays including compound dose response and enhancement assay. In a primary assay for potential ability to modulate umami taste, tastant compounds of Formula (I) that can be either savory flavoring agents in their own right or flavor enhancers of MSG are identified and scores of their activities are given as percentage of the maximum MSG intensity (%). In compound dose response, an EC50 is calculated to reflect the potency of the compound as a savory agonist or enhancer.
An HEK293 cell line derivative (see e.g., Chandrashekar, et al., Cell (2000) 100: 703-711) which stably expresses Gα15 and hT1R1/hT1R3 under an inducible promoter (see WO 03/001876 A2) was used to identify compounds with savory tasting properties.
Compounds disclosed in this application were initially selected based on their activity on the hT1R1/hT1R3-HEK293-Gα15 cell line. Activity was determined using an automated fluorometric imaging assay on a FLIPR instrument (Fluorometric Intensity Plate Reader, Molecular Devices, Sunnyvale, Calif.) (designated FLIPR assay). Cells from one clone (designated clone I-17) were seeded into 384-well plates (at approximately 48,000 cells per well) in a medium containing Dulbecco's modified Eagle's medium (DMEM) supplemented with GlutaMAX (Invitrogen, Carlsbad, Calif.), 10% dialyzed fetal bovine serum (Invitrogen, Carlsbad, Calif.), 100 Units/ml Penicillin G, 100 μg/ml Streptomycin (Invitrogen, Carlsbad, Calif.) and 60 pM mifepristone (to induce expression of hT1R1/hT1R3, (see WO 03/001876 A2). I-17 cells were grown for 48 hours at 37° C. I-17 cells were then loaded with the calcium dye Fluo-3AM (Molecular Probes, Eugene, Oreg.), 4 μM in a phosphate buffered saline (D-PBS) (Invitrogen, Carlsbad, Calif.), for 1.5 hours at room temperature. After replacement with 25 μl D-PBS, stimulation was performed in the FLIPR instrument and at room temperature by the addition of 25 μl D-PBS supplemented with different stimuli at concentrations corresponding to twice the desired final level. Receptor activity was quantified by determining the maximal fluorescence increases (using a 480 nm excitation and 535 nm emission) after normalization to basal fluorescence intensity measured before stimulation.
For dose-responses analysis, stimuli were presented in duplicates at 10 different concentrations ranging from 1.5 nM to 30 μM. Activities were normalized to the response obtained with 60 mM monosodium glutamate, a concentration that elicits maximum receptor response. EC50s (concentration of compound that causes 50% activation of receptor) were determined using a non-linear regression algorithm, where the Hill slope, bottom asymptotes and top asymptotes were allow to vary. Identical results were obtained when analyzing the dose-response data using commercially available software for non-linear regression analysis such as GraphPad PRISM (San Diego, Calif.).

Experiment [2] addresses T1, hT1R1/hT1R3 umami receptor expressed in an HEK293 cell line. The experiment in a line: Umami taste enhancement activity assay (EC50 ratio vs. MSG). It is filed as cell-based. An excerpt: In umami taste enhancement activity assay experiments, which produce an “EC50 ratio” measurement of how effectively the tastant compounds of the invention enhance the savory flavorant (typically MSG) already in a test solution. A series of measurements of the dose response is run in solutions comprising MSG alone, then a second dose response is run with MSG in combination with predetermined amounts of a candidate compound of Formula (I) at the same time.
In this assay, increasing concentrations of monosodium glutamate (ranging from 12 μM to 81 mM) were presented, in duplicates, in the presence or absence of a fixed concentration of the test compound. Typical compound concentrations tested were 30 μM, 10 μM, 3 μM, 1 μM, 0.3 μM, 0.1 μM and 0.03 μM. The relative efficacy of compounds of Formula (I) at enhancing the receptor was determined by calculating the magnitude of a shift in the EC50 for monosodium glutamate. Enhancement was defined as a ratio (EC50R) corresponding to the EC50 of monosodium glutamate, determined in the absence of the test compound, divided by the EC50 of monosodium glutamate, determined in the presence of the test compound.
Stated alternatively, “EC50 ratio” as compared to MSG is calculated based on the following definitions:
EC50 Ratio vs. MSG=EC50 (MSG)/EC50 (MSG+[Compound]) • wherein “[compound]” refers to the concentration of the compound of Formula (I) used to elicit (or enhance or potentiate) the MSG dose response.
It should be noted that the EC50 ratio measured can depend somewhat on the concentration of the compound itself. Preferred savory enhancers would have a high EC50 Ratio vs. MSG at a low concentration of the compound used. Preferably the EC50 ratio experiments to measure umami enhancement are run at a concentration of a compound of Formula (I) between about 10 μM to about 0.1 μM, or preferably at […] or 3.0 μM.

Regarding `CCCC(CCC)NC(=S)c1ccc2c(c1)OCO2` [Example 1, N-(heptan-4-yl)benzo[d][1,3]dioxole-5-carbothioamide], in experiment [1] (read-out: EC50 for activation of a hT1R1/hT1R3 umami receptor expressed in an HEK293 cell line), the EC50 was 8.8 µM. For the same compound, in experiment [2] (compound present at 0.03 μM), the “EC50 ratio (enhanced the effectiveness of monosodium glutamate)” value is 3. With `O=C(OCCCc1nc2ccccc2[nH]1)c1cccs1` [Example A6], in experiment [1] (read-out: Umami EC50), the EC50 was 3.5 µM. In addition, the “EC50 ratio (vs. MSG)” value in experiment [2] (compound @ 3 μM) was 4.4. Consider `O=C(OCCCn1ncc2ccccc2c1=O)c1cccs1` [Example A7], for which the EC50 in experiment [1] (read-out: Umami EC50) is 6 µM. Further, in experiment [2] (compound @ 3 μM), the “EC50 ratio (vs. MSG)” value came out at 3.8. Regarding `COc1ccc(CNc2ccccn2)cc1` [Example A8], the EC50 in experiment [1] (read-out: Umami EC50) was 11.8 µM. The “EC50 ratio (vs. MSG)” value in experiment [2] (compound @ 1 μM) came out at 3.1. For the compound `COc1ccc(CNc2nc3ccccn3n2)cc1` [Example A9], in experiment [1] (read-out: Umami EC50), the EC50 was determined as 11.8 µM. Further, the “EC50 ratio (vs. MSG)” value in experiment [2] (compound @ 3 μM) stood at 3.6.

For `COc1ccc(C(=O)CC(SCO)c2ccc(Cl)cc2)cc1` (stereo not shown) [Example A10], in experiment [1] (read-out: Umami EC50), the EC50 is 6.05 µM. In the case of `O=C(SCc1ccccn1)c1ccccc1` [Example A11], the EC50 in experiment [1] (read-out: Umami EC50) is 6.34 µM. The “EC50 ratio (vs. MSG)” value in experiment [2] (compound @ 3 μM) is recorded as 6.5. As for `c1ccc2oc(SCc3cn4ccccc4n3)nc2c1` [Example A12], the EC50 in experiment [1] (read-out: Umami EC50) turned out to be 5.14 µM. For the same compound, in experiment [2] (compound @ 1 μM), the “EC50 ratio (vs. MSG)” value came out at 2.81. With `c1ccc2sc(SCc3cn4ccsc4n3)nc2c1` [Example A13], in experiment [1] (read-out: Umami EC50), the EC50 was 5.19 µM. Besides, the “EC50 ratio (vs. MSG)” value in experiment [2] (compound @ 3 μM) came out at 3.6. Consider `CCOC(=O)COc1ccc(S(=O)(=O)Nc2ccc3c(c2)OCO3)cc1` [Example A14], for which the EC50 in experiment [1] (read-out: Umami EC50) was 14.4 µM. `CSc1ccccc1NC(=S)NC1CCCCC1C` (stereo not shown) [Example A15]: the EC50 in experiment [1] (read-out: Umami EC50) came to 3 µM. Regarding `CC(C)(C)c1ccc(NC(=S)NCc2ccccn2)cc1` [Example A16], the EC50 in experiment [1] (read-out: Umami EC50) came to 3.71 µM. Turning to `S=C(NCCc1ccccn1)Nc1cccc(Cl)c1` [Example A17], in experiment [1] (read-out: Umami EC50), the EC50 was determined as 4.53 µM. Also, the “EC50 ratio (vs. MSG)” value in experiment [2] (compound @ 1 μM) is 4.7. As to `CCCCC(C)NC(=S)NC1CCCc2ccccc21` (stereo not shown) [Example A18], the EC50 in experiment [1] (read-out: Umami EC50) was 7.88 µM. Take `CC1CCCCC1NC(=S)Nc1ccc2c(c1)OCO2` (stereo not shown) [Example A19]: in experiment [1] (read-out: Umami EC50), the EC50 stood at 13.4 µM. The same measure, in the same setting: with `Cc1cc(CNC(=S)Nc2ccc(OC(C)C)cc2)no1` [Example A20] the figure was 11 µM.

Turning to `CC(C)Oc1ccc(NC(=S)NCc2ncc[nH]2)cc1` [Example A21], in experiment [1] (read-out: Umami EC50), the EC50 worked out at 14.5 µM. In the case of `O=C(OCc1ccccn1)c1ccc(COc2cccc3ccccc23)cc1` [Example A22], the EC50 in experiment [1] (read-out: Umami EC50) amounted to 3.87 µM. `O=S(=O)(NCc1cc(F)cc2c1OCOC2)c1ccc(-c2ccccn2)s1` [Example A23]: in experiment [1] (read-out: Umami EC50), the EC50 is 10.3 µM.
